Measurements reported in US9023882B2, “5-membered nitrogen containing heterocyclic derivatives and pharmaceutical compositions comprising the same” (Kissei Pharmaceutical Co., Ltd., priority 2007, dated 2015).

Target: Xanthine oxidase (from bovine milk, Sigma) (Bos taurus (Bovine), UniProt P80457)
Test: Xanthine oxidase inhibitory activity
Format: biochemical
Details: 0.02 units/mL, xanthine 200 μM, 10 minutes at room temperature, absorbance at 290 nm
Procedure: (1) Preparation of Test Compounds
Test compounds were dissolved in DMSO (Wako) at 40 mM concentration and then diluted to intended concentrations with phosphate-buffered saline (PBS).
(2) Method for Measurement
Xanthine oxidase (from bovine milk, Sigma) was prepared with phosphate-buffered saline (PBS) at 0.02 units/mL, and then the solution was added to 96 well plates at 50 μL/well. In addition, test compounds diluted with PBS were added at 50 μL/well. Xanthine (Wako) at 200 μM prepared with PBS was added at 100 μL/well, and the reaction was conducted for 10 minutes at room temperature. Absorbance at 290 nm was measured using a microplate reader SpectraMax Plus 384 (Molecular device). The absorbance under a condition without xanthine is 0%, and control without test compounds is 100%. Fifty % inhibitory concentration of a test compound (IC50) was calculated (Tables 91 to 92). Ex. No in the table indicates Example number.

Sequence of Xanthine oxidase (from bovine milk, Sigma) (P80457 whole entry): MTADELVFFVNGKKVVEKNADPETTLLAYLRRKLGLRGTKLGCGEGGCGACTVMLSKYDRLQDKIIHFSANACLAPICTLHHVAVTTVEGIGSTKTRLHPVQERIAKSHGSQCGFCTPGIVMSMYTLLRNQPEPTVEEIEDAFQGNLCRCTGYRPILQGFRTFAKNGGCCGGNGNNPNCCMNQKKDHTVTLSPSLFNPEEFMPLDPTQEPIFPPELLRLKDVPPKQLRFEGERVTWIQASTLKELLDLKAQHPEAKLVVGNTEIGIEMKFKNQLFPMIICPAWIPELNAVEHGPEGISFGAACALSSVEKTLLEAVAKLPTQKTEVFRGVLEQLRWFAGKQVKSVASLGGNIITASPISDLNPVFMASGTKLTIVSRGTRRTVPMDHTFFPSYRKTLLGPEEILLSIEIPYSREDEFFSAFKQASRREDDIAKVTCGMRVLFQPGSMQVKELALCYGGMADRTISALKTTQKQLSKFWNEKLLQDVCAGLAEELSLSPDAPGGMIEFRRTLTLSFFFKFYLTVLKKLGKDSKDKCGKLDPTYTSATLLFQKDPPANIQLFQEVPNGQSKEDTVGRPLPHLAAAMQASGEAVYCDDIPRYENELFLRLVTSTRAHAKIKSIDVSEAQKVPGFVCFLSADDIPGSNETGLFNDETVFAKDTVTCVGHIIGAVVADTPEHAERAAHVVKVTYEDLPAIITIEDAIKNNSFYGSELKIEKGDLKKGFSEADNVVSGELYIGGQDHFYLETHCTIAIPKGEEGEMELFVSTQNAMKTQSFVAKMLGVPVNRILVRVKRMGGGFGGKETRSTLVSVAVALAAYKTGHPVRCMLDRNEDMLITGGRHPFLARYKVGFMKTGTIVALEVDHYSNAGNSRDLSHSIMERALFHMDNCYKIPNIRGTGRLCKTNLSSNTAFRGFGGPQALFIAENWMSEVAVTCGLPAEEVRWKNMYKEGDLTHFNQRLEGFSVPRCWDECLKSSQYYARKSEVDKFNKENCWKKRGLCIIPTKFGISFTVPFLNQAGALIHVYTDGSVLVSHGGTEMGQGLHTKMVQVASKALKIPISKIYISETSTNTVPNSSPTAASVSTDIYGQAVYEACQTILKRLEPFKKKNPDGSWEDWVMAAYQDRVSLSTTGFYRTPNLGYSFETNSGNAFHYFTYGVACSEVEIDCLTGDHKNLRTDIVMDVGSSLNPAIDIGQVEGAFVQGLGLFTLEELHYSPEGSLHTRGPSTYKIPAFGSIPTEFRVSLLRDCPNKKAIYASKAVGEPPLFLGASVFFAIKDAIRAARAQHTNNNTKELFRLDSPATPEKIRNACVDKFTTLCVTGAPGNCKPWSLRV

CCCCc1c(C#N)cn(-c2ccc(C(=O)O)cc2)c1C [Example 2, 4-(3-Butyl-4-cyano-2-methylpyrrole-1-yl)benzoic acid] was tested, and the IC50 was 17.1 nM.

N#Cc1cn(-c2ccc(C(=O)O)cc2)nc1OCc1ccccc1 [Example 7, 4-(3-Benzyloxy-4-cyanopyrazole-1-yl)benzoic acid] gave an IC50 of 5.8 nM.

N#Cc1cn(-c2ccc(C(=O)O)cc2)nc1-c1csc2ccccc12 [Example 8, 4-(3-Benzo[b]thiophene-3-yl-4-cyanopyrazole-1-yl)benzoic acid] gave an IC50 of 7.5 nM.

For N#Cc1cn(-c2ccc(C(=O)O)c(O)c2)cc1-c1ccccc1O [Example 12, 4-[3-Cyano-4-(2-hydroxyphenyl)pyrrole-1-yl]-2-hydroxy benzoic acid], the IC50 was 5.5 nM.

With COCCOc1ccccc1-c1cn(-c2ccc(C(=O)O)c(O)c2)cc1C#N [Example 15, 4-{3-Cyano-4-[2-(2-methoxyethoxy)phenyl]pyrrole-1-yl}-2-hydroxy benzoic acid] the IC50 was 13.9 nM.

In the case of N#Cc1cn(-c2ccc(C(=O)O)cc2)cc1OCc1ccccc1 [Example 18, 4-(3-Cyano-4-benzyloxypyrrole-1-yl)benzoic acid], the IC50 is reported as 7.1 nM.

N#Cc1cn(-c2ccc(O)c(C(=O)O)c2)cc1-c1ccccc1 [Example 22, 5-(3-Cyano-4-phenylpyrrole-1-yl)-2-hydroxy-benzoic acid] was tested, and the IC50 was 120 nM.

For CC(=O)Nc1nn(-c2ccc(C(=O)O)cc2)cc1C#N [Example 27, 4-(3-Acetylamino-4-cyanopyrazole-1-yl)benzoic acid], the IC50 was 7.1 nM.

For COCOc1ccccc1-c1cn(-c2ccc(C(=O)O)cc2)cc1C#N [Example 143], the IC50 was 4.6 nM.

With COCOc1cccc(-c2cn(-c3ccc(C(=O)O)cc3)cc2C#N)c1 [Example 144] the IC50 was 5.8 nM.

Work on COCOc1ccc(-c2cn(-c3ccc(C(=O)O)cc3)cc2C#N)cc1 [Example 145] yielded an IC50 of 4.9 nM.

N#Cc1cn(-c2ccc(C(=O)O)cc2)cc1-c1ccccc1O [Example 146] showed an IC50 of 4 nM.

In the case of N#Cc1cn(-c2ccc(C(=O)O)cc2)cc1-c1cccc(O)c1 [Example 147], the IC50 is reported as 2.1 nM.

In the case of N#Cc1cn(-c2ccc(C(=O)O)cc2)cc1-c1ccc(O)cc1 [Example 148], the IC50 is reported as 2.5 nM.

Molecule N#Cc1cn(-c2ccc(C(=O)O)cc2)cc1-c1ccccc1OCCCO [Example 149] has an IC50 of 6 nM.

With N#Cc1cn(-c2ccc(C(=O)O)cc2)cc1-c1cccc(OCCCO)c1 [Example 150] the IC50 was 5 nM.

N#Cc1cn(-c2ccc(C(=O)O)cc2)cc1-c1ccccc1OCCO [Example 152] showed an IC50 of 4 nM.

Molecule N#Cc1cn(-c2ccc(C(=O)O)cc2)cc1-c1cccc(OCCO)c1 [Example 153] has an IC50 of 2.4 nM.

N#Cc1cn(-c2ccc(C(=O)O)cc2)cc1-c1ccc(OCCO)cc1 [Example 154] was tested, and the IC50 was 4 nM.

N#Cc1cn(-c2ccc(C(=O)O)cc2)cc1-c1ccccc1OCc1ccccc1 [Example 155] showed an IC50 of 52.4 nM.

N#Cc1cn(-c2ccc(C(=O)O)cc2)cc1-c1cccc(OCc2ccccc2)c1 [Example 156] was tested, and the IC50 was 52.9 nM.

In the case of N#Cc1cn(-c2ccc(C(=O)O)cc2)cc1-c1ccc(OCc2ccccc2)cc1 [Example 157], the IC50 is reported as 33.8 nM.

N#Cc1cn(-c2ccc(C(=O)O)cc2)cc1-c1ccccc1OCC(=O)O [Example 158] gave an IC50 of 5.1 nM.

Molecule N#Cc1cn(-c2ccc(C(=O)O)cc2)cc1-c1cccc(OCC(=O)O)c1 [Example 159] has an IC50 of 2.7 nM.

N#Cc1cn(-c2ccc(C(=O)O)cc2)cc1-c1ccc(OCC(=O)O)cc1 [Example 160] gave an IC50 of 2.1 nM.

N#Cc1cn(-c2ccc(C(=O)O)cc2)cc1-c1ccccc1-c1ccccc1 [Example 161] showed an IC50 of 31.9 nM.

With N#Cc1cn(-c2ccc(C(=O)O)cc2)cc1-c1cccc(-c2ccccc2)c1 [Example 162] the IC50 was 55.1 nM.

In the case of N#Cc1cn(-c2ccc(C(=O)O)cc2)cc1-c1ccc(-c2ccccc2)cc1 [Example 163], the IC50 is reported as 41.7 nM.

Work on N#Cc1cn(-c2ccc(C(=O)O)cc2)cc1-c1ccccc1Oc1ccccc1 [Example 164] yielded an IC50 of 33.2 nM.

N#Cc1cn(-c2ccc(C(=O)O)cc2)cc1-c1cccc(Oc2ccccc2)c1 [Example 165] was tested, and the IC50 was 32.2 nM.

N#Cc1cn(-c2ccc(C(=O)O)cc2)cc1-c1ccc(Oc2ccccc2)cc1 [Example 166] showed an IC50 of 52.2 nM.

Cc1ccccc1COc1ccccc1-c1cn(-c2ccc(C(=O)O)cc2)cc1C#N [Example 167] was tested, and the IC50 was 83.8 nM.

Cc1cccc(COc2ccccc2-c2cn(-c3ccc(C(=O)O)cc3)cc2C#N)c1 [Example 168] was tested, and the IC50 was 70 nM.

Cc1ccc(COc2ccccc2-c2cn(-c3ccc(C(=O)O)cc3)cc2C#N)cc1 [Example 169] showed an IC50 of 56.8 nM.

For N#Cc1cn(-c2ccc(C(=O)O)cc2)cc1-c1ccccc1OCc1ccccc1F [Example 170], the IC50 was 37.5 nM.

N#Cc1cn(-c2ccc(C(=O)O)cc2)cc1-c1ccccc1OCc1cccc(F)c1 [Example 171] was tested, and the IC50 was 39.8 nM.

With N#Cc1cn(-c2ccc(C(=O)O)cc2)cc1-c1ccccc1OCc1ccc(F)cc1 [Example 172] the IC50 was 49.1 nM.

N#Cc1cn(-c2ccc(C(=O)O)cc2)cc1-c1cccc(OCc2cccs2)c1 [Example 173] was tested, and the IC50 was 41.4 nM.

In the case of N#Cc1cn(-c2ccc(C(=O)O)cc2)cc1-c1cccc(OCc2ccsc2)c1 [Example 174], the IC50 is reported as 17.6 nM.

For N#Cc1cn(-c2ccc(C(=O)O)cc2)cc1-c1ccccc1OCc1cccs1 [Example 175], the IC50 was 27.7 nM.

N#Cc1cn(-c2ccc(C(=O)O)cc2)cc1-c1ccccc1OCc1ccsc1 [Example 176] showed an IC50 of 13.7 nM.

N#Cc1cn(-c2ccc(C(=O)O)cc2)cc1-c1ccccc1OCc1ccccc1Cl [Example 177] showed an IC50 of 54.4 nM.

N#Cc1cn(-c2ccc(C(=O)O)cc2)cc1-c1ccccc1OCc1ccc(Cl)cc1 [Example 179] was tested, and the IC50 was 143 nM.

For N#Cc1cn(-c2ccc(C(=O)O)cc2)cc1-c1ccccc1OCc1ccccc1C(F)(F)F [Example 180], the IC50 was 255 nM.

Molecule COc1ccccc1COc1ccccc1-c1cn(-c2ccc(C(=O)O)cc2)cc1C#N [Example 183] has an IC50 of 67.3 nM.

Work on COc1cccc(COc2ccccc2-c2cn(-c3ccc(C(=O)O)cc3)cc2C#N)c1 [Example 184] yielded an IC50 of 71.9 nM.

Cc1ccc(COc2cccc(-c3cn(-c4ccc(C(=O)O)cc4)cc3C#N)c2)cc1 [Example 188] was tested, and the IC50 was 132 nM.

With N#Cc1cn(-c2ccc(C(=O)O)cc2)cc1-c1cccc(OCc2ccccc2F)c1 [Example 189] the IC50 was 63.4 nM.

Work on N#Cc1cn(-c2ccc(C(=O)O)cc2)cc1-c1cccc(OCc2cccc(F)c2)c1 [Example 190] yielded an IC50 of 116 nM.

N#Cc1cn(-c2ccc(C(=O)O)cc2)cc1-c1cccc(OCc2ccc(F)cc2)c1 [Example 191] gave an IC50 of 90.3 nM.

Molecule N#Cc1cn(-c2ccc(C(=O)O)cc2)cc1-c1cccc(OCc2cccc(Cl)c2)c1 [Example 193] has an IC50 of 70.4 nM.

In the case of COc1cccc(COc2cccc(-c3cn(-c4ccc(C(=O)O)cc4)cc3C#N)c2)c1 [Example 198], the IC50 is reported as 111 nM.

N#Cc1cn(-c2ccc(C(=O)O)cc2)cc1-c1ccccc1OCCCCO [Example 199] showed an IC50 of 19.2 nM.

Work on N#Cc1cn(-c2ccc(C(=O)O)cc2)cc1-c1cccc(OCCCCO)c1 [Example 200] yielded an IC50 of 5.9 nM.

In the case of COCCOc1ccccc1-c1cn(-c2ccc(C(=O)O)cc2)cc1C#N [Example 201], the IC50 is reported as 11.1 nM.

In the case of COCCOc1cccc(-c2cn(-c3ccc(C(=O)O)cc3)cc2C#N)c1 [Example 202], the IC50 is reported as 6 nM.

N#Cc1cn(-c2ccc(C(=O)O)cc2F)cc1-c1ccccc1 [Example 203] was tested, and the IC50 was 6.6 nM.

N#Cc1cn(-c2ccc(C(=O)O)cc2)cc1/C=C/c1ccccc1 [Example 206] gave an IC50 of 7.1 nM.

Work on N#Cc1cn(-c2ccc(C(=O)O)cc2)cc1CCc1ccccc1 [Example 207] yielded an IC50 of 3.8 nM.

Molecule N#Cc1cn(-c2ccc(C(=O)O)c(F)c2)cc1-c1ccccc1 [Example 208] has an IC50 of 5.2 nM.

N#Cc1cn(-c2ccc(C(=O)O)cc2)cc1-c1cccc2ccccc12 [Example 209] gave an IC50 of 7.1 nM.

N#Cc1cn(-c2ccc(C(=O)O)cc2)cc1-c1ccc(C(=O)O)cc1 [Example 210] gave an IC50 of 5.1 nM.

With N#Cc1cccc(-c2cn(-c3ccc(C(=O)O)cc3)cc2C#N)c1 [Example 211] the IC50 was 4.6 nM.

In the case of N#Cc1ccc(-c2cn(-c3ccc(C(=O)O)cc3)cc2C#N)cc1 [Example 212], the IC50 is reported as 5.4 nM.

For CCOCCOc1ccccc1-c1cn(-c2ccc(C(=O)O)cc2)cc1C#N [Example 213], the IC50 was 16.8 nM.

In the case of CCOCCOc1cccc(-c2cn(-c3ccc(C(=O)O)cc3)cc2C#N)c1 [Example 215], the IC50 is reported as 6.7 nM.

N#Cc1cn(-c2ccc(C(=O)O)cc2)cc1-c1cccc(OCCOc2ccccc2)c1 [Example 216] gave an IC50 of 20.9 nM.

In the case of N#Cc1cn(-c2ccc(C(=O)O)cc2)cc1-c1cccc(C(=O)O)c1 [Example 217], the IC50 is reported as 5 nM.

For N#Cc1cn(-c2ccc(C(=O)O)cc2)cc1-c1cccc(CO)c1 [Example 219], the IC50 was 5 nM.

In the case of COc1cn(-c2ccc(C(=O)O)cc2)cc1C#N [Example 220], the IC50 is reported as 11.1 nM.

CCOC(=O)c1cn(-c2ccc(C(=O)O)cc2)cc1C(F)(F)F [Example 221] was tested, and the IC50 was 45.4 nM.

With N#Cc1cn(-c2ccc(C(=O)O)cc2)cc1C(=O)c1ccccc1 [Example 224] the IC50 was 10.7 nM.

In the case of CNC(=O)c1cn(-c2ccc(C(=O)O)cc2)cc1C#N [Example 225], the IC50 is reported as 7.2 nM.

CN(C)C(=O)c1cn(-c2ccc(C(=O)O)cc2)cc1C#N [Example 226] gave an IC50 of 19.7 nM.

Molecule N#Cc1cn(-c2ccc(C(=O)O)cc2)cc1C(=O)NCc1ccccc1 [Example 227] has an IC50 of 3.6 nM.

With CN(Cc1ccccc1)C(=O)c1cn(-c2ccc(C(=O)O)cc2)cc1C#N [Example 228] the IC50 was 4.6 nM.

COCCNC(=O)c1cn(-c2ccc(C(=O)O)cc2)cc1C#N [Example 229] showed an IC50 of 7.2 nM.

COCCN(C)C(=O)c1cn(-c2ccc(C(=O)O)cc2)cc1C#N [Example 230] was tested, and the IC50 was 13 nM.
